The values below are quoted from earlier work in patent publication US20050158411A1, “Methods and apparatus to prevent, treat, and cure the symptoms of nauea caused by chemotherapy treatments of human cancers” (priority 2000, published 2005).

Structures are written as SMILES. Entries after “also recorded” stand apart in the source; their conditions may differ.

Series [1] concerns fungal infection of the toenails. Conditions: after six months.
Series [2] concerns SARS virus growing in tissue cultures.

As to `Clc1ccccc1C(c1ccccc1)(c1ccccc1)n1ccnc1` [clotrimazole], the “effectiveness for fungal infection of the toenails” value in series [1] is reported as “equally effective”. As for `NC(=O)c1ncn([C@@H]2O[C@H](CO)[C@@H](O)[C@H]2O)n1` [ribavirin], the “effect against the SARS virus” value in series [2] is on record as “no evidence that the drug has any effect; also recorded: conclusively shown ineffective”.
